Results: patent US9096646B2, “CXCR4 receptor compounds” (priority 2008, dated 2015)
Values joined by “and” are separate entries in the source; they are usually repeats but may differ in a detail not shown here. Identical values can stand only once. Like-named read-outs stand apart in the source and are kept apart here. One block for each molecule: values may come before it. Square brackets hold non-standard residues; d marks the D form. Ends that are not written are not given here. Peptide text beside a SMILES is read from it. * marks the point of attachment. ξ: configuration not given here. Biotin = O=C1N[C@H]2[C@H](CS[C@H]2CCCCC(=O)*)N1; ξGly(nC16H33) = CCCCCCCCCCCCCCCCC(N)C(=O)O; Palmitoyl = CCCCCCCCCCCCCCCC(=O)*

Target: CXCR4 (Homo sapiens, UniProt P61073)
Assay: Chemotaxis assay, effect on SDF1-a (CXCL12) induced migration of CCRF-CEM cells
Assay type: cell-based
Design: a human T-cell ALL line that endogenously expresses CXCR4; endogenous in cells; host or cells: CCRF-CEM (human T-cell ALL line)
Conditions: CEM cells; for activity at 0.01 µM / activity at 0.03 µM / activity at 0.1 µM / activity at 0.3 µM / activity at 3 µM / activity at 1 µM: CCRF-CEM; for Peak Ratio: peak test compound/peak control
[1] = Table 20, i3 loop, conc 0.01 uM
[2] = Table 20, i3 loop, conc 0.03 uM
[3] = Table 20, i3 loop, conc 1.0 uM, read-out: AUC (% of vehicle)
[4] = Table 20, i3 loop, conc 1.0 uM, read-out: Max (% of vehicle)

Chain of CXCR4 (P61073 whole entry): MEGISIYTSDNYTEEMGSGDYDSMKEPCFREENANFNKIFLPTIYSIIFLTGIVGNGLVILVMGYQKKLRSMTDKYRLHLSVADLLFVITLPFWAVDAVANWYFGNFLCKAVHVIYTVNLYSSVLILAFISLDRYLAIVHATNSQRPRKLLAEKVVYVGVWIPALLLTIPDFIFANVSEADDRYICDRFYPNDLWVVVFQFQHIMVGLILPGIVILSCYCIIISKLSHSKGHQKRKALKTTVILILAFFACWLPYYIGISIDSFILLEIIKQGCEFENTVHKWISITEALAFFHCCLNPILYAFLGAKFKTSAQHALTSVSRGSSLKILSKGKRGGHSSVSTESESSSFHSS

Molecule: CCCCCCCCCCCCCCCC(=O)N[C@@H](CCCCN)C(=O)N[C@@H](CC(C)C)C(=O)N[C@@H](CO)C(=O)N[C@@H](Cc1cnc[nH]1)C(=O)N[C@@H](CO)C(=O)N[C@@H](CCCCN)C(=O)NCC(=O)N[C@@H](Cc1cnc[nH]1)C(=O)N[C@@H](CCC(N)=O)C(=O)N[C@@H](CCCCN)C(=O)N[C@@H](CCCNC(=N)N)C(=O)N[C@@H](CCCCN)C(=O)N[C@@H](C)C(=O)N[C@@H](CC(C)C)C(=O)N[C@@H](CCCCN)C(N)=O [Compound 92] (Palmitoyl-KLSHSKGHQKRKALK-NH2)
activity at 0.01 µM (Table 20, i3 loop, conc 0.01 uM, read-out: AUC (% of vehicle)): 158%
activity at 0.01 µM (Table 20, i3 loop, conc 0.01 uM, read-out: Max (% of vehicle)): 156%
activity at 0.03 µM (Table 20, i3 loop, conc 0.03 uM, read-out: AUC (% of vehicle)): 200%
activity at 0.03 µM (Table 20, i3 loop, conc 0.03 uM, read-out: Max (% of vehicle)): 198%
activity at 0.1 µM (Table 20, i3 loop, conc 0.1 uM, read-out: AUC (% of vehicle)): 174%
activity at 0.1 µM (Table 20, i3 loop, conc 0.1 uM, read-out: Max (% of vehicle)): 169%
activity at 0.3 µM (Table 20, i3 loop, conc 0.3 uM, read-out: AUC (% of vehicle)): 180%
activity at 0.3 µM (Table 20, i3 loop, conc 0.3 uM, read-out: Max (% of vehicle)): 165%
activity at 3 µM (Table 20, i3 loop, conc 3.0 uM, read-out: AUC (% of vehicle)): 184%
activity at 3 µM (Table 20, i3 loop, conc 3.0 uM, read-out: Max (% of vehicle)): 176%
Peak Test Compound [1]: 0.16 nM
Peak Ratio [1]: 0.2
Peak Test Compound [2]: 0.16 nM
Peak Ratio [2]: 0.2
Peak Test Compound (Table 20, i3 loop, conc 0.1 uM): 0.16 nM
Peak Ratio (Table 20, i3 loop, conc 0.1 uM): 0.2
Peak Test Compound (Table 20, i3 loop, conc 0.3 uM): 0.16 nM
Peak Ratio (Table 20, i3 loop, conc 0.3 uM): 0.2
Peak Test Compound (Table 20, i3 loop, conc 1.0 uM): 0.2 nM and 0.16 nM
Peak Ratio (Table 20, i3 loop, conc 1.0 uM): 0.2
Peak Test Compound (Table 20, i3 loop, conc 3.0 uM): 0.8 nM
Peak Ratio (Table 20, i3 loop, conc 3.0 uM): 1

Molecule: CCCCCCCCCCCCCCCCC(NC(=O)CCCC[C@@H]1SC[C@@H]2NC(=O)N[C@@H]21)C(=O)N[C@@H](CCSC)C(=O)NCC(=O)N[C@@H](Cc1ccc(O)cc1)C(=O)N[C@@H](CCC(N)=O)C(=O)N[C@@H](CCCCN)C(=O)N[C@@H](CCCCN)C(=O)N[C@@H](CC(C)C)C(=O)N[C@@H](CCCNC(=N)N)C(=O)N[C@@H](CO)C(=O)N[C@@H](CCSC)C(=O)N[C@H](C(=O)N[C@@H](CC(=O)O)C(N)=O)[C@@H](C)O (some centres unmarked) [Compound 33] (Biotin-[ξGly(nC16H33)]MGYQKKLRSMTD-NH2)
activity at 1 µM (Table 18, i1 loop, drug conc 1.0 uM, read-out: AUC (% of)): 54.8%
activity at 1 µM (Table 18, i1 loop, drug conc 1.0 uM, read-out: Max (% of)): 76.1%

Molecule: 96: CXCR4 i3 loop compound (SHSKGHQKRKALK; also: lipid Pal, place not given here) [Compound 96]
AUC (% of vehicle) (Table 20, i3 loop, conc 1.0 uM): 34.22 % of vehicle
Max (% of vehicle) (Table 20, i3 loop, conc 1.0 uM): 63.12 % of vehicle

Molecule: CCCCCCCCCCCCCCCC(=O)N[C@@H](Cc1cnc[nH]1)C(=O)N[C@@H](CO)C(=O)N[C@@H](CCCCN)C(=O)NCC(=O)N[C@@H](Cc1cnc[nH]1)C(=O)N[C@@H](CCC(N)=O)C(=O)N[C@@H](CCCCN)C(=O)N[C@@H](CCCNC(=N)N)C(=O)N[C@@H](CCCCN)C(=O)N[C@@H](C)C(=O)N[C@@H](CC(C)C)C(=O)N[C@@H](CCCCN)C(=O)N[C@H](C(=O)N[C@H](C(=O)N[C@H](C(=O)N[C@H](C(N)=O)[C@@H](C)CC)C(C)C)[C@@H](C)O)[C@@H](C)O [Compound 100] (Palmitoyl-HSKGHQKRKALKTTVI-NH2)
activity at 1 µM [3]: 49.3%
activity at 1 µM [4]: 49.8%
Peak Test Compound (Table 20, i3 loop, conc 1.0 uM): 0.2 nM
Peak Ratio (Table 20, i3 loop, conc 1.0 uM): 0.04

Molecule: 103: CXCR4 i3 loop compound (IIISKLSHSKGHQKRKALKT) [Compound 103]
AUC (% of vehicle) (Table 20, i3 loop, conc 1.0 uM): 26.32 % of vehicle
Max (% of vehicle) (Table 20, i3 loop, conc 1.0 uM): 24.45 % of vehicle

Molecule: CCCCCCCCCCCCCCCC(=O)N[C@@H](Cc1cnc[nH]1)C(=O)N[C@@H](CO)C(=O)N[C@@H](CCCCN)C(=O)NCC(=O)N[C@@H](Cc1cnc[nH]1)C(=O)N[C@@H](CCC(N)=O)C(=O)N[C@@H](CCCCN)C(=O)N[C@@H](CCCNC(=N)N)C(=O)N[C@@H](CCCCN)C(=O)N[C@@H](C)C(=O)N[C@@H](CC(C)C)C(=O)N[C@@H](CCCCN)C(=O)N[C@H](C(N)=O)[C@@H](C)O [Compound 97] (Palmitoyl-HSKGHQKRKALKT-NH2)
activity at 1 µM [3]: 48.9%
activity at 1 µM [4]: 54.7%
Peak Test Compound (Table 20, i3 loop, conc 1.0 uM): 1 nM
Peak Ratio (Table 20, i3 loop, conc 1.0 uM): 0.2

Molecule: 102: CXCR4 i3 loop compound (IIISKLSHSKGHQKRKALKT) [Compound 102]
AUC (% of vehicle) (Table 20, i3 loop, conc 1.0 uM): 0 % of vehicle
Max (% of vehicle) (Table 20, i3 loop, conc 1.0 uM): 0.24 % of vehicle

Molecule: CCCCCCCCCCCCCCCC(=O)N[C@@H](CC(C)C)C(=O)N[C@@H](CO)C(=O)N[C@@H](Cc1cnc[nH]1)C(=O)N[C@@H](CO)C(=O)N[C@@H](CCCCN)C(=O)NCC(=O)N[C@@H](Cc1cnc[nH]1)C(=O)N[C@@H](CCC(N)=O)C(=O)N[C@@H](CCCCN)C(=O)N[C@@H](CCCNC(=N)N)C(=O)N[C@@H](CCCCN)C(=O)N[C@@H](C)C(=O)N[C@@H](CC(C)C)C(=O)N[C@@H](CCCCN)C(N)=O [Compound 95] (Palmitoyl-LSHSKGHQKRKALK-NH2)
activity at 1 µM [3]: 77.5%
activity at 1 µM [4]: 92.1%
Peak Test Compound (Table 20, i3 loop, conc 1.0 uM): 1 nM
Peak Ratio (Table 20, i3 loop, conc 1.0 uM): 1

Molecule: Pal-KLSHSKGHQKRKALKTTV-amide (Palmitoyl-KLSHSKGHQKRKALKTTV-NH2; SMILES CCCCCCCCCCCCCCCC(=O)N[C@@H](CCCCN)C(=O)N[C@@H](CC(C)C)C(=O)N[C@@H](CO)C(=O)N[C@@H](Cc1c[nH]cn1)C(=O)N[C@@H](CO)C(=O)N[C@@H](CCCCN)C(=O)NCC(=O)N[C@@H](Cc1c[nH]cn1)C(=O)N[C@@H](CCC(N)=O)C(=O)N[C@@H](CCCCN)C(=O)N[C@@H](CCCNC(=N)N)C(=O)N[C@@H](CCCCN)C(=O)N[C@@H](C)C(=O)N[C@@H](CC(C)C)C(=O)N[C@@H](CCCCN)C(=O)N[C@H](C(=O)N[C@H](C(=O)N[C@H](C(N)=O)C(C)C)[C@@H](C)O)[C@@H](C)O) [Compound 90]
AUC (% of vehicle) [1]: 171.8 % of vehicle
Max (% of vehicle) [1]: 156.08 % of vehicle
Peak Test Compound [1]: 0.16 nM
AUC (% of vehicle) [2]: 217.53 % of vehicle
Max (% of vehicle) [2]: 202.16 % of vehicle
Peak Test Compound [2]: 0.16 nM
AUC (% of vehicle) (Table 20, i3 loop, conc 0.1 uM): 175.95 % of vehicle
Max (% of vehicle) (Table 20, i3 loop, conc 0.1 uM): 157.79 % of vehicle
Peak Test Compound (Table 20, i3 loop, conc 0.1 uM): 0.03 nM
AUC (% of vehicle) (Table 20, i3 loop, conc 0.3 uM): 129.83 % of vehicle
Max (% of vehicle) (Table 20, i3 loop, conc 0.3 uM): 113.68 % of vehicle
Peak Test Compound (Table 20, i3 loop, conc 0.3 uM): 0.16 nM
Max (% of vehicle) (Table 20, i3 loop, conc 1.0 uM): 131.59 % of vehicle and 76.8 % of vehicle
Peak Test Compound (Table 20, i3 loop, conc 1.0 uM): 0.16 nM
AUC (% of vehicle) (Table 20, i3 loop, conc 3.0 uM): 152.75 % of vehicle
Max (% of vehicle) (Table 20, i3 loop, conc 3.0 uM): 114.49 % of vehicle
Peak Test Compound (Table 20, i3 loop, conc 3.0 uM): 0.16 nM

The remaining lines, values ahead:

AUC (% of vehicle) (Table 21, i4 loop, conc 1.0 uM): 89.47 % of Vehicle
Max (% of vehicle) (Table 21, i4 loop, conc 1.0 uM): 83.94 % of Vehicle
Peak Test Comp. (Table 21, i4 loop, conc 1.0 uM): 25 nM
Molecule: 108: CXCR4 i4 domain compound (GAKFKTSAQHALTSVSRGSSLKILSKGKRG) [Compound 108]

AUC (% of vehicle) (Table 21, i4 loop, conc 1.0 uM): 65.28 % of Vehicle
Max (% of vehicle) (Table 21, i4 loop, conc 1.0 uM): 80.48 % of Vehicle
Molecule: 116: CXCR4 i4 domain compound (GAKFKTSAQHALTSVR) [Compound 116]

AUC (% of vehicle) (Table 21, i4 loop, conc 1.0 uM): 77.47 % of Vehicle
Max (% of vehicle) (Table 21, i4 loop, conc 1.0 uM): 92.11 % of Vehicle
Molecule: 115: CXCR4 i4 domain compound (GAKFKTSAQHALTSVSRGSSLK) [Compound 115]

AUC (% of vehicle) (Table 21, i4 loop, conc 1.0 uM): 49.31 % of Vehicle
Max (% of vehicle) (Table 21, i4 loop, conc 1.0 uM): 49.84 % of Vehicle
Peak Test Comp. (Table 21, i4 loop, conc 1.0 uM): 0.2 nM
Molecule: 109: CXCR4 i4 domain compound (GAKFKTSAQHALTSVSRGSSLKILSKGKRGGHSSVST) [Compound 109]

AUC (% of vehicle) (Table 21, i4 loop, conc 1.0 uM): 34.22 % of Vehicle
Max (% of vehicle) (Table 21, i4 loop, conc 1.0 uM): 63.12 % of Vehicle
Molecule: 114: CXCR4 i4 domain compound (GAKFKTSAQHALTSVSRGSSLKILSK) [Compound 114]
